From patent publication US8846760B2, “Dihydronaphthalene and naphthalene derivatives as N-formyl peptide receptor like-1 (FPRL-1) receptor modulators” (Allergan, Inc., priority 2011, dated 2014) come the findings set out here.

Structures are written as SMILES.

This test has as its target T1, FPRL-1 (Homo sapiens, UniProt P25090).
T1 construct: expressed in transfected cells
T1 sequence (P25090 1-351): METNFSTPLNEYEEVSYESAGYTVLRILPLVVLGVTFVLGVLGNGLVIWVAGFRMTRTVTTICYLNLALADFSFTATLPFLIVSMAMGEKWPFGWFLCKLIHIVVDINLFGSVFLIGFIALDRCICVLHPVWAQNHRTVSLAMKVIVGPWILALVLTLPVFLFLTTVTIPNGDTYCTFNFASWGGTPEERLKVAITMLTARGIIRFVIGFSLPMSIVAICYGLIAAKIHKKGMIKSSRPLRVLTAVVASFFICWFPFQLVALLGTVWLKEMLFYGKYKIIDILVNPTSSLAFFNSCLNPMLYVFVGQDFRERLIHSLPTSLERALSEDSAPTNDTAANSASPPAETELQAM
The test is described as follows: Compound-induced calcium activity on FLIPR Tetra in CHO-Gα16 cells stably expressing FPRL1. The format is cell-based. The settings on record: for Emax: efficacy, read-out: FPRL-1 Ga16-CHO (eff %); for EC50: tested 0.61 to 10,000 nM, read-out: FPRL-1 Ga16-CHO EC50. The procedure: CHO-Gα16 cells stably expressing FPRL1 were cultured in (F12, 10% FBS, 1% PSA, 400 μg/ml geneticin and 50 μg/ml hygromycin) and HEK-Gqi5 cells stable expressing FPR1 were cultured in (DMEM high glucose, 10% FBS, 1% PSA, 400 μg/ml geneticin and 50 μg/ml hygromycin). In general, the day before the experiment, 18,000 cells/well were plated in a 384-well clear bottom poly-d-lysine coated plate. The following day the screening compound-induced calcium activity was assayed on the FLIPR^Tetra. The drug plates were prepared in 384-well microplates using the EP3 and the MultiPROBE robotic liquid handling systems. Compounds were tested at concentrations ranging from 0.61 to 10,000 nM. Results are expressed as EC50 (nM) and efficacy values.

Regarding `O=C(O)C1=C(C(=O)Nc2ccc(Br)cc2)CCc2c1cccc2-c1ccccc1` [Compound 5, 2-{[(4-Bromophenyl)amino]carbonyl}-5-phenyl-3,4-dihydronaphthalene-1-carboxylic acid], the Emax is 100% and the EC50 was found to be 566 nM.
On the same counts, the results for `Cc1ccc(C)c2c1CCC(C(=O)Nc1ccc(Br)cc1)=C2C(=O)O` [Compound 8, 2-{[(4-Bromophenyl)amino]carbonyl}-5,8-dimethyl-3,4-dihydronaphthalene-1-carboxylic acid] are 93% and 198 nM.
For `CC1(C)CC(C(=O)Nc2ccc(Br)cc2)=C(C(=O)O)c2ccccc21` [Compound 3, 2-{[(4-Bromophenyl)amino]carbonyl}-4,4-dimethyl-3,4-dihydronaphthalene-1-carboxylic acid], the Emax came to 95% and the EC50 came out at 87 nM.
Consider `O=C(O)C1=C(C(=O)Nc2ccc(Br)cc2)CCc2ccc(Cl)cc21` [Compound 4, 2-{[(4-Bromophenyl)amino]carbonyl}-7-chloro-3,4-dihydronaphthalene-1-carboxylic acid], for which the Emax is 81% and the EC50 was determined as 777 nM.
In the case of `O=C(Nc1ccc(Br)cc1)c1ccc2ccccc2c1C(=O)O` [Compound 11, 2-{[(4-Bromophenyl)amino]carbonyl}-1-naphthoic acid], the Emax came out at 100% and the EC50 is 1300 nM.
For `CCc1cc(C(=O)Nc2ccc(Br)cc2)c(C(=O)O)c2ccccc12` [Compound 12, 2-{[(4-Bromophenyl)amino]carbonyl}-4-ethyl-1-naphthoic acid], the Emax is 95% and the EC50 was 165 nM.
In the case of `CC(C)(C)c1ccc2c(c1)C(C(=O)O)=C(C(=O)Nc1ccc(Br)cc1)CC2` [Compound 2, 2-{[(4-Bromophenyl)amino]carbonyl}-7-tert-butyl-3,4-dihydronaphthalene-1-carboxylic acid], the Emax amounted to 86% and the EC50 amounted to 1320 nM.
On the same counts, the results for `O=C(O)c1cc2ccccc2cc1C(=O)Nc1ccc(Br)cc1` [Compound 9, 3-{[(4-Bromophenyl)amino]carbonyl}-2-naphthoic acid] are 92% and 5930 nM.
On to `CC(C)c1cccc2c1CCC(C(=O)Nc1ccc(Br)cc1)=C2C(=O)O` [Compound 1, 2-{[(4-Bromophenyl)amino]carbonyl}-5-isopropyl-3,4-dihydronaphthalene-1-carboxylic Acid], for which the Emax amounted to 80% and the EC50 amounted to 756 nM.
As to `Cc1cc(C)c2c(c1)C(C(=O)O)=C(C(=O)Nc1ccc(Br)cc1)CC2` [Compound 7, 2-{[(4-Bromophenyl)amino]carbonyl}-5,7-dimethyl-3,4-dihydronaphthalene-1-carboxylic acid], the Emax is 95% and the EC50 came out at 3920 nM.
For the compound `CC1(C)CCC(C)(C)c2cc(C(=O)Nc3ccc(Br)cc3)c(C(=O)O)cc21` [Compound 10, 3-{[(4-Bromophenyl)amino]carbonyl}-5,5,8,8-tetramethyl-5,6,7,8-tetrahydronaphthalene-2-carboxylic acid], the Emax was 58% and the EC50 came to 1560 nM.
In the case of `O=C(O)C1=C(C(=O)Nc2ccc(Br)cc2)CCc2ccccc21` [Compound 6, 2-{[(4-Bromophenyl)amino]carbonyl}-3,4-dihydronaphthalene-1-carboxylic acid], the Emax was 90% and the EC50 was 383 nM.
